Assay results as given in ChEMBL document CHEMBL2413029, “Rapid modifications of N-substitution in iminosugars: development of new β-glucocerebrosidase inhibitors and pharmacological chaperones for Gaucher disease” (Bioorg Med Chem, 2013).
Where a chain is given by its changes, count along the chain named. Blank lines part the entries; values can stand above or below the compound they belong to. Active and inactive are the calls of the source. The rule behind the calls is not given here.

Key:
[1] = target: T1, Lysosomal acid glucosylceramidase (Homo sapiens) (UniProt P04062); experiment: Inhibition of human beta-glucocerebrosidase at 20 uM by fluorescence spectrophotometry
T1 sequence (whole entry): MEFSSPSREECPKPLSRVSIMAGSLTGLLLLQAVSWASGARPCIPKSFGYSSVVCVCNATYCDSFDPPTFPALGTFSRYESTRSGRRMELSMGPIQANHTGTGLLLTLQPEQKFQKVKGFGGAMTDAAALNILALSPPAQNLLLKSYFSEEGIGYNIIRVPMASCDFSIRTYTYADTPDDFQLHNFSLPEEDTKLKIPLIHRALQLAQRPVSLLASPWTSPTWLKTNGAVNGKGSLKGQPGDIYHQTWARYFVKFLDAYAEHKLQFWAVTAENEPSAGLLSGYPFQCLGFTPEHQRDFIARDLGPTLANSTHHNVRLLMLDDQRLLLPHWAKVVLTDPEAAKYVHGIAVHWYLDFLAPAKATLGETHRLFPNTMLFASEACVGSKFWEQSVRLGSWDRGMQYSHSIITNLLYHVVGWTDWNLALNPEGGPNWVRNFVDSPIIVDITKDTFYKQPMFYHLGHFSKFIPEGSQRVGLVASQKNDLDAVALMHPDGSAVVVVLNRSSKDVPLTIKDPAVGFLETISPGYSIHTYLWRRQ

[2] = system: T2, Lysosomal acid glucosylceramidase (Homo sapiens), P04062 [N409S]; experiment: Induction of beta-glucocerebrosidase N370S mutant in human GM00372 cells using 4-methylumbelliferyl-beta-D-glucopyranoside as substrate at 625 nM by fluorescence spectrophotometry relative to untreated control; type: cell-based
T2 sequence (whole entry): T1 sequence (whole entry) with N409S

[3] = target: Lysosomal alpha-glucosidase (Homo sapiens) (UniProt P10253); experiment: Induction of alpha-glucosidase in human GM00372 cells using 4-methylumbelliferyl alpha-D-glucoside as substrate at 1.5 uM after 4 days by fluorescence spectrophotometry relative to untreated control; type: cell-based
[4] = target: T3, Lysosomal acid glucosylceramidase (Homo sapiens, UniProt P04062); experiment: Competitive inhibition of human beta-glucocerebrosidase by Lineweaver-Burk double reciprocal plot method
T3 sequence (P04062 whole entry): T1 sequence (whole entry)

[5] = target: Lysosomal alpha-glucosidase (Homo sapiens) (UniProt P10253); experiment: Induction of alpha-glucosidase in human GM00372 cells using 4-methylumbelliferyl alpha-D-glucoside as substrate at <6.25 uM after 4 days by fluorescence spectrophotometry relative to untreated control; type: cell-based
[6] = system: T2, Lysosomal acid glucosylceramidase (Homo sapiens), P04062 [N409S]; experiment: Induction of beta-glucocerebrosidase N370S mutant in human GM00372 cells using 4-methylumbelliferyl-beta-D-glucopyranoside as substrate at 12.5 uM by fluorescence spectrophotometry relative to untreated control; type: cell-based
[7] = system: T2, Lysosomal acid glucosylceramidase (Homo sapiens), P04062 [N409S]; experiment: Induction of beta-glucocerebrosidase N370S mutant in human GM00372 cells using 4-methylumbelliferyl-beta-D-glucopyranoside as substrate at 6.2 uM by fluorescence spectrophotometry relative to untreated control; type: cell-based
[8] = target: Lysosomal alpha-glucosidase (Homo sapiens) (UniProt P10253); experiment: Induction of alpha-glucosidase in human GM00372 cells using 4-methylumbelliferyl alpha-D-glucoside as substrate at 25 uM after 4 days by fluorescence spectrophotometry relative to untreated control; type: cell-based
[9] = target: Lysosomal alpha-glucosidase (Homo sapiens) (UniProt P10253); experiment: Induction of alpha-glucosidase in human GM00372 cells using 4-methylumbelliferyl alpha-D-glucoside as substrate at 6.2 uM after 4 days by fluorescence spectrophotometry relative to untreated control; type: cell-based
[10] = system: T2, Lysosomal acid glucosylceramidase (Homo sapiens), P04062 [N409S]; experiment: Induction of beta-glucocerebrosidase N370S mutant in human GM00372 cells using 4-methylumbelliferyl-beta-D-glucopyranoside as substrate at 3.1 uM by fluorescence spectrophotometry relative to untreated control; type: cell-based
[11] = target: T3, Lysosomal acid glucosylceramidase; experiment: Non-competitive inhibition of human beta-glucocerebrosidase by Lineweaver-Burk double reciprocal plot method
[12] = system: T2, Lysosomal acid glucosylceramidase (Homo sapiens), P04062 [N409S]; experiment: Induction of beta-glucocerebrosidase N370S mutant in human GM00372 cells using 4-methylumbelliferyl-beta-D-glucopyranoside as substrate at 25 uM by fluorescence spectrophotometry relative to untreated control; type: cell-based
[13] = target: Lysosomal alpha-glucosidase (Homo sapiens) (UniProt P10253); experiment: Induction of alpha-glucosidase in human GM00372 cells using 4-methylumbelliferyl alpha-D-glucoside as substrate at 20 to 100 uM after 4 days by fluorescence spectrophotometry relative to untreated control; type: cell-based
[14] = system: T2, Lysosomal acid glucosylceramidase (Homo sapiens), P04062 [N409S]; experiment: Induction of beta-glucocerebrosidase N370S mutant in human GM00372 cells using 4-methylumbelliferyl-beta-D-glucopyranoside as substrate at 50 uM by fluorescence spectrophotometry relative to untreated control; type: cell-based
[15] = system: T2, Lysosomal acid glucosylceramidase (Homo sapiens), P04062 [N409S]; experiment: Induction of beta-glucocerebrosidase N370S mutant in human GM00372 cells using 4-methylumbelliferyl-beta-D-glucopyranoside as substrate at 1.5 uM by fluorescence spectrophotometry relative to untreated control; type: cell-based
[16] = system: T2, Lysosomal acid glucosylceramidase (Homo sapiens), P04062 [N409S]; experiment: Induction of beta-glucocerebrosidase N370S mutant trafficking from endoplasmic reticulum to lysosome in human GM00372 cells at 5 uM by immunocytochemistry; type: cell-based

Compound: O=C(CC(c1ccccc1)(c1ccccc1)c1ccccc1)NCCCCN1C[C@H](O)[C@@H](O)[C@H](O)[C@H]1CO
fold change (FC) [2]: 1.8 | fold change (FC) [3]: 0.4 | inhibition [1]: Active | Ki [4]: 400 nM | Activity [5]: 60%

Compound: O=C(NCCCCN1C[C@H](O)[C@@H](O)[C@H](O)[C@H]1CO)C1CCCC1
inhibition [1]: < 60%

Compound: O=C(CC(c1ccccc1)(c1ccccc1)c1ccccc1)NCCCCN1C[C@@H](O)[C@H](O)[C@H]1CO
fold change (FC) [7]: 2.5 | fold change (FC) [8]: 1.2

Compound: CC[C@@H]1[C@@H](O)[C@H](O)[C@@H](CO)N1CCCCNC(=O)CC1c2ccccc2-c2ccccc21
fold change (FC) [6]: 1.6

Compound: CCCCCCCCCN1C[C@H](O)[C@@H](O)[C@H](O)[C@H]1CO
fold change (FC) [9]: 0.4 | Activity [5]: 60%

Compound: O=C(NCCCCN1C[C@H](O)[C@@H](O)[C@H](O)[C@H]1CO)C1CCC1
inhibition [1]: < 60%

Compound: CC[C@@H]1[C@@H](O)[C@H](O)[C@@H](CO)N1CCCCNC(=O)CC(c1ccccc1)(c1ccccc1)c1ccccc1
fold change (FC) [10]: 1.4

Compound: O=C(CC1c2ccccc2-c2ccccc21)NCCCCN1[C@H](CO)[C@@H](O)[C@H](O)[C@H]1CO
Activity [13]: < 10% | fold change (FC) [7]: 1.7

Compound: O=C(CC1c2ccccc2-c2ccccc21)NCCCCN1C[C@@H](O)[C@H](O)[C@H]1CO
fold change (FC) [14]: 1.8 | Activity [13]: < 10%

Compound: O=C(CC(c1ccccc1)(c1ccccc1)c1ccccc1)NCCCCN1[C@H](CO)[C@@H](O)[C@H](O)[C@H]1CO
Activity [13]: < 10% | fold change (FC) [15]: 2.2 | Activity [16]: Active | Ki [4]: 4100 nM

The next lines start with the values.

inhibition [1]: < 60%
Compound: O=C(CC1CCCCC1)NCCCCN1C[C@H](O)[C@@H](O)[C@H](O)[C@H]1CO

fold change (FC) [3]: 0.4 | inhibition [1]: Active | fold change (FC) [6]: 1.75 | Ki [4]: 71 nM | Activity [5]: 60%
Compound: O=C(Cc1cc(C(F)(F)F)cc(C(F)(F)F)c1)NCCCCN1C[C@H](O)[C@@H](O)[C@H](O)[C@H]1CO

inhibition [1]: < 60%
Compound: O=C(CC1CCCC1)NCCCCN1C[C@H](O)[C@@H](O)[C@H](O)[C@H]1CO

inhibition [1]: Active | Ki [4]: 1000 nM
Compound: O=C(NCCCCN1C[C@H](O)[C@@H](O)[C@H](O)[C@H]1CO)C1CCc2ccccc2C1 (some centres not stated)

inhibition [1]: Active | Ki [4]: 3200 nM
Compound: O=C(COc1ccc(Cl)c(Cl)c1)NCCCCN1C[C@H](O)[C@@H](O)[C@H](O)[C@H]1CO

fold change (FC) [3]: 0.3 | inhibition [1]: Active | fold change (FC) [6]: 1.9 | Ki [4]: 400 nM | Activity [5]: 60%
Compound: O=C(CC1c2ccccc2-c2ccccc21)NCCCCN1C[C@H](O)[C@@H](O)[C@H](O)[C@H]1CO

inhibition [1]: < 60%
Compound: O=C(NCCCCN1C[C@H](O)[C@@H](O)[C@H](O)[C@H]1CO)C1CC1

Ki [11]: 1100 nM | fold change (FC) [12]: 1.5 | inhibition [1]: Active
Compound: COc1ccc2c(c1)C(CC(=O)NCCCCN1C[C@H](O)[C@@H](O)[C@H](O)[C@H]1CO)CC2 (some centres not stated)

inhibition [1]: < 60%
Compound: O=C(CCC1CCCC1)NCCCCN1C[C@H](O)[C@@H](O)[C@H](O)[C@H]1CO
